In US11236046B2, “Substituted heterocyclic sulfonamide compounds useful as TRPA1 modulators” (Genentech, Inc., priority 2013, dated 2022):

Biological target: human TRPA1 (Homo sapiens (Human), UniProt O75762)
Assay: FLIPR Tetra calcium influx assay, block of cinnamaldehyde-induced calcium influx in CHO cells expressing TRPA1 (human)
Type: cell-based
Conditions: 20 min compound incubation, 75 uM cinnamaldehyde (~EC80), Hill coefficient fixed to 1.5, read-out: hTRPA1 AUC IC50
Procedure: IC50 Determinations of Exemplified Compounds.
IC50s (effective concentration) of compounds on the human and rat TRPA1 channels were determined using a FLIPR Tetra instrument. CHO cells expressing TRPA1 were plated into 384-well plates, incubated overnight at 37C, and loaded with BD calcium indicator dye for 1 hr at 37° C. followed by 15 minutes. at room temperature. The assay buffer was Hank's Balanced Salt Solution (HBSS) containing 20 mM HEPES (pH readjusted to 7.4) along with 0.02% BSA.
Following dye load and plate cool down, compounds were added to the cells using FLIPR Tetra. Plates were then incubated with compounds for 20 minutes at room temperature prior to adding agonist. Following this incubation, ˜EC80 concentration of cinnamaldehyde (75 uM for human TRPA1 and 45 uM for rat TRPA1) was added to active the channels and block of cinnamaldehyde induced calcium influx was measured.
Fixing the Hill coefficient will generally reduce variability of the IC50 determination. The IC50s were individually examined to make sure the MIN and MAX points were set correctly prior to validation of the results.

human TRPA1, sequence (O75762 whole entry): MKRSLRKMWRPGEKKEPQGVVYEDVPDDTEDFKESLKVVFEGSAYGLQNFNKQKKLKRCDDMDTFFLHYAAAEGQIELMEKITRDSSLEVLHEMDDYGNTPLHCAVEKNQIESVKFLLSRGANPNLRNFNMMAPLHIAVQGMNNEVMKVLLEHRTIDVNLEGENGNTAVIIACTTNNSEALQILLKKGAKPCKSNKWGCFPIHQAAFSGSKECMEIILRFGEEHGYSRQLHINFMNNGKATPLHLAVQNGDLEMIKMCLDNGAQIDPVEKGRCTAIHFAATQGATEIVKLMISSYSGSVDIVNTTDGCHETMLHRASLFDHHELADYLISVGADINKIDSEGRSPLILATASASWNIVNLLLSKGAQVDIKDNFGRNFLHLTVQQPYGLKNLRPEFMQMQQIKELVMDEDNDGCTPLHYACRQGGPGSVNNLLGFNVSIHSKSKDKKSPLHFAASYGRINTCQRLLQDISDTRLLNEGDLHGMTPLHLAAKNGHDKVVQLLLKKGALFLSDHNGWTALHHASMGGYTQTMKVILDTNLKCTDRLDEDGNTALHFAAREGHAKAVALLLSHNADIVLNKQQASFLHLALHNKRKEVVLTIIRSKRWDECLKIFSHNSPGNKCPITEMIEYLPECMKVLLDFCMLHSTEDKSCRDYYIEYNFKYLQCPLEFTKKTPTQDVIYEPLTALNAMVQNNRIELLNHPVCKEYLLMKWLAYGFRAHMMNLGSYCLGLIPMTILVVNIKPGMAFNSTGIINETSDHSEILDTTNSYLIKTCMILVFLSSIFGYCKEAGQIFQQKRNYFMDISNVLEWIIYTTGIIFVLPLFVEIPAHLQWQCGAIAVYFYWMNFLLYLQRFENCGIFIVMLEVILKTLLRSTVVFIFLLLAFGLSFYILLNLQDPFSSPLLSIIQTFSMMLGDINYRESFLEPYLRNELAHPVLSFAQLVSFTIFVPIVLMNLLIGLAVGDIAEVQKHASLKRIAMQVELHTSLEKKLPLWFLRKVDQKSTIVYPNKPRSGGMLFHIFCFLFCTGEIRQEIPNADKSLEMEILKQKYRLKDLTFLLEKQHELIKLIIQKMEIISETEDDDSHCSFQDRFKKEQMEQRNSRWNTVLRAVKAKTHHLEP

Q: With O=C(NCc1cc(F)cc(-c2csc(C(F)(F)F)n2)c1)[C@@H]1C[C@@H](F)CN1S(=O)(=O)c1ccc(F)cc1 [Example 173, (2S,4R)-4-fluoro-1-(4-fluorophenyl)sulfonyl-N-[[3-fluoro-5-[2-(trifluoromethyl)thiazol-4-yl]phenyl]methyl]pyrrolidine-2-carboxamide] as the compound, how does the IC50 read?
A: 111 nM

Q: O=C(NCc1cc(N2CCC(F)(F)CC2)c(F)cn1)[C@@H]1C[C@@H](F)CN1S(=O)(=O)c1ccc(F)cc1 [Example 128, (2S,4R)—N-[[4-(4,4-difluoro-1-piperidyl)-5-fluoro-2-pyridyl]methyl]-4-fluoro-1-(4-fluorophenyl)sulfonyl-pyrrolidine-2-carboxamide] was tested. Which IC50 did it give?
A: 404 nM

Q: With O=C(NCc1cc(F)cc(-c2ccc(OC(F)F)nc2)c1)[C@@H]1C[C@@H](F)CN1S(=O)(=O)c1ccc(F)cc1 [Example 76, (2S,4R)—N-([3-[6-(difluoromethoxy)pyridin-3-yl]-5-fluorophenyl]methyl)-4-fluoro-1-[(4-fluorobenzene)sulfonyl]pyrrolidine-2-carboxamide] as the compound, how does the IC50 read?
A: 39 nM

Q: O=C(NCc1cc(-c2ccc(C(F)(F)F)nc2)c(F)cn1)[C@@H]1[C@@H](F)CCN1S(=O)(=O)c1ccc(F)cc1 [Example 115, (2R,3S)-3-fluoro-1-(4-fluorophenyl)sulfonyl-N-[[5-fluoro-4-[6-(trifluoromethyl)-3-pyridyl]-2-pyridyl]methyl]pyrrolidine-2-carboxamide] was tested. Which IC50 did it give?
A: 13 nM

Q: How did the IC50 turn out when O=C(NCc1cc(-c2ccc(C(F)F)cc2)ncn1)[C@@H]1C[C@@H](F)CN1S(=O)(=O)c1ccc(F)cc1 [Example 63, (2S,4R)—N-[[6-[4-(difluoromethyl)phenyl]pyrimidin-4-yl]methyl]-4-fluoro-1-(4-fluorophenyl)sulfonyl-pyrrolidine-2-carboxamide] was run?
A: 318 nM

Q: COc1cnc(CNC(=O)[C@@H]2C[C@@H](F)CN2S(=O)(=O)c2ccc(F)cc2)cc1-c1ccc(C(F)(F)F)nc1 [Example 108, (2S,4R)-4-fluoro-1-[(4-fluorobenzene)sulfonyl]-N-([5-methoxy-4-[6-(trifluoromethyl)pyridin-3-yl]pyridin-2-yl]methyl)pyrrolidine-2-carboxamide] was tested. Which IC50 did it give?
A: 256 nM

Q: Which IC50 does the source give for O=C(NCc1cc(-c2ccc(C(F)(F)F)cn2)ccc1F)[C@@H]1C[C@@H](F)CN1S(=O)(=O)c1ccc(F)cc1 [Example 162, (2S,4R)-4-fluoro-N-(2-fluoro-5-(5-(trifluoromethyl)pyridin-2-yl)benzyl)-1-((4-fluorophenyl)sulfonyl)pyrrolidine-2-carboxamide] here?
A: 11 nM

Q: For O=C(NCc1cc(C2=CCC(C(F)(F)F)CC2)ncn1)[C@@H]1C[C@@H](F)CN1S(=O)(=O)c1ccc(F)cc1 (stereo partly drawn) [Example 148, (2S,4R)-4-fluoro-1-(4-fluorophenylsulfonyl)-N-((6-(4-(trifluoromethyl)cyclohex-1-enyl)pyrimidin-4-yl)methyl)pyrrolidine-2-carboxamide], which IC50 is on record?
A: 46 nM

Q: With O=C(NCc1cc(-c2ccc(C(F)(F)F)nc2)ncn1)[C@@H]1CCN1S(=O)(=O)c1ccc(F)cc1 [Example 201, (S)-1-(4-fluorophenylsulfonyl)-N-((6-(6-(trifluoromethyl)pyridin-3-yl)pyrimidin-4-yl)methyl)azetidine-2-carboxamide] as the compound, how does the IC50 read?
A: 268 nM

Q: For COCCOc1nc(C(F)(F)F)ccc1-c1cc(F)cc(CNC(=O)[C@@H]2C[C@@H](F)CN2S(=O)(=O)c2ccc(F)cc2)c1 [Example 190, (2S,4R)-4-fluoro-N-([3-fluoro-5-[2-(2-methoxyethoxy)-6-(trifluoromethyl)pyridin-3-yl]phenyl]methyl)-1-[(4-fluorobenzene)sulfonyl]pyrrolidine-2-carboxamide], which IC50 is on record?
A: 52 nM

Q: Which IC50 does the source give for O=C(NCc1ccnc(-c2ccc(C(F)(F)F)cc2O)c1)[C@@H]1C[C@@H](F)CN1S(=O)(=O)c1ccc(F)cc1 [Example 57, (2S,4R)-4-fluoro-1-(4-fluorophenyl)sulfonyl-N-[[2-[2-hydroxy-4-(trifluoromethyl)phenyl]-4-pyridyl]methyl]pyrrolidine-2-carboxamide] here?
A: 5 nM

Q: With O=C(NCc1cc(-c2cnc(C(F)(F)F)nc2)ccc1F)[C@@H]1C[C@@H](F)CN1S(=O)(=O)c1ccc(F)cc1 [Example 56, (2S,4R)-4-fluoro-N-(2-fluoro-5-(2-(trifluoromethyl)pyrimidin-5-yl)benzyl)-1-((4-fluorophenyl)sulfonyl)pyrrolidine-2-carboxamide] as the compound, how does the IC50 read?
A: 11 nM

Q: C[C@@]1(F)C[C@@H](C(=O)NCc2cc(F)cc(-c3cnc(C(F)(F)F)cn3)c2)N(S(=O)(=O)c2ccc(F)cc2)C1 [Example 47, (2S,4R)-4-fluoro-N-(3-fluoro-5-(5-(trifluoromethyl)pyrazin-2-yl)benzyl)-1-((4-fluorophenyl)sulfonyl)-4-methylpyrrolidine-2-carboxamide] was tested. Which IC50 did it give?
A: 11 nM

Q: COc1nn(-c2ccc(C(F)(F)F)nc2)cc1CNC(=O)[C@@H]1[C@@H](F)CCN1S(=O)(=O)c1ccc(F)cc1 [Example 103, (2R,3S)-3-fluoro-1-(4-fluorophenylsulfonyl)-N-((3-methoxy-1-(6-(trifluoromethyl)pyridin-3-yl)-1H-pyrazol-4-yl)methyl)pyrrolidine-2-carboxamide] was tested. Which IC50 did it give?
A: 26 nM

Q: Which IC50 does the source give for COc1nn(-c2ccc(C(F)(F)F)nc2)cc1CNC(=O)[C@@H]1C[C@@H](F)CN1S(=O)(=O)c1ccc(F)cc1 [Example 153, (2S,4R)-4-fluoro-1-[(4-fluorobenzene)sulfonyl]-N-([3-methoxy-1-[6-(trifluoromethyl)pyridin-3-yl]-1H-pyrazol-4-yl]methyl)pyrrolidine-2-carboxamide] here?
A: 68 nM

Q: For O=C(NCc1cc(-c2cnc(C(F)(F)F)nc2)ccc1F)[C@]12C[C@H]1CCN2S(=O)(=O)c1ccc(F)cc1 [Example 182, (1R,5S)-4-(4-fluorophenyl)sulfonyl-N-[[2-fluoro-5-[2-(trifluoromethyl)pyrimidin-5-yl]phenyl]methyl]-4-azabicyclo[3.1.0]hexane-5-carboxamide], which IC50 is on record?
A: 21 nM

Q: Which IC50 does the source give for O=C(NCc1cc(N2CCC3(CC2)CC3)c(F)cn1)[C@@H]1C[C@@H](F)CN1S(=O)(=O)c1ccc(F)cc1 [Example 129, (2S,4R)—N-[[4-(6-azaspiro[2.5]octan-6-yl)-5-fluoro-2-pyridyl]methyl]-4-fluoro-1-(4-fluorophenyl)sulfonyl-pyrrolidine-2-carboxamide] here?
A: 99 nM

Q: Which IC50 does the source give for O=C(NCc1cc(-c2cnc(C(F)(F)F)cn2)ccc1F)[C@@H]1C[C@@H](F)CN1S(=O)(=O)c1ccc(F)cc1 [Example 54, (2S,4R)-4-fluoro-N-(2-fluoro-5-(5-(trifluoromethyl)pyrazin-2-yl)benzyl)-1-((4-fluorophenyl)sulfonyl)pyrrolidine-2-carboxamide] here?
A: 13 nM

Q: With COc1nn(-c2ccc(C(F)(F)F)cc2)cc1CNC(=O)[C@@H]1C[C@@H](F)CN1S(=O)(=O)c1cccc(F)c1 [Example 134, (2S,4R)-4-fluoro-1-[(3-fluorobenzene)sulfonyl]-N-([3-methoxy-1-[4-(trifluoromethyl)phenyl]-1H-pyrazol-4-yl]methyl)pyrrolidine-2-carboxamide] as the compound, how does the IC50 read?
A: 23 nM

Q: How did the IC50 turn out when Cc1cc(-c2cnc(C(F)(F)F)nc2)cc(CNC(=O)[C@@H]2C[C@@H](F)CN2S(=O)(=O)c2ccc(F)cc2)n1 [Example 48, (2S,4R)-4-fluoro-1-(4-fluorophenyl)sulfonyl-N-[[6-methyl-4-[2-(trifluoromethyl)pyrimidin-5-yl]-2-pyridyl]methyl]pyrrolidine-2-carboxamide] was run?
A: 152 nM

Q: For O=C(NCc1cc(N2CCC(C(F)(F)F)CC2)c(F)cn1)[C@@H]1C[C@@H](F)CN1S(=O)(=O)c1ccc(F)cc1 [Example 144, (2S,4R)-4-fluoro-N-((5-fluoro-4-(4-(trifluoromethyl)piperidin-1-yl)pyridin-2-yl)methyl)-1-(4-fluorophenylsulfonyl)pyrrolidine-2-carboxamide], which IC50 is on record?
A: 56 nM

Q: O=C(NCc1cc(-c2cnc(C(F)(F)F)nc2)ncc1F)C1C2CC(CC2F)N1S(=O)(=O)c1ccc(F)cc1 (centres unmarked) [Example 185, 5-fluoro-N-((5-fluoro-2-(2-(trifluoromethyl)pyrimidin-5-yl)pyridin-4-yl)methyl)-2-(4-fluorophenylsulfonyl)-2-aza-bicyclo[2.2.1]heptane-3-carboxamide] was tested. Which IC50 did it give?
A: 155 nM

Q: With O=C(NCc1cc(-c2ccc(C(F)(F)F)cn2)ccn1)[C@@H]1C[C@@H](F)CN1S(=O)(=O)c1ccc(F)cc1 [Example 131, (2S,4R)-4-fluoro-1-(4-fluorophenyl)sulfonyl-N-[[4-[5-(trifluoromethyl)-2-pyridyl]-2-pyridyl]methyl]pyrrolidine-2-carboxamide] as the compound, how does the IC50 read?
A: 102 nM

Q: O=C(NCc1cc(F)nc(-c2ccc(C(F)(F)F)nc2)c1)[C@@H]1C[C@@H](F)CN1S(=O)(=O)c1ccc(F)cc1 [Example 119, (2S,4R)-4-fluoro-N-([2-fluoro-6-[6-(trifluoromethyl)pyridin-3-yl]pyridin-4-yl]methyl)-1-[(4-fluorobenzene)sulfonyl]pyrrolidine-2-carboxamide] was tested. Which IC50 did it give?
A: 52 nM

Q: Which IC50 does the source give for C[C@@]1(C(=O)NCc2cc(-c3ccc(C(F)(F)F)nc3)ncn2)C[C@@H](F)CN1S(=O)(=O)c1ccc(F)cc1 (single isomer, unassigned) [Example 142] here?
A: 92 nM

Q: N#Cc1cnc(-c2ccc(C(F)(F)F)cc2)cc1CNC(=O)[C@@H]1C[C@@H](F)CN1S(=O)(=O)c1ccc(F)cc1 [Example 78, (2S,4R)—N-([5-cyano-2-[4-(trifluoromethyl)phenyl]pyridin-4-yl]methyl)-4-fluoro-1-[(4-fluorobenzene)sulfonyl]pyrrolidine-2-carboxamide] was tested. Which IC50 did it give?
A: 7 nM
